Experimental data taken from publication PMC3694096, “Development of Novel In Vivo Chemical Probes to Address CNS Protein Kinase Involvement in Synaptic Dysfunction” (PLoS ONE, 2013).

Legend:
[1] = target: T1, MELK (Homo sapiens, UniProt Q14680); experiment: Kinome profiler screen; format: biochemical; conditions: at 20,000 nM inhibitor; kinase activity remaining
T1 construct: purchased Millipore KinaseProfiler

[2] = target: T2, Rsk3 (Homo sapiens, UniProt Q15349); experiment: Kinome profiler screen; format: biochemical; conditions: at 20,000 nM inhibitor; kinase activity remaining
T2 construct: purchased Millipore KinaseProfiler
T2 sequence (Q15349 whole entry): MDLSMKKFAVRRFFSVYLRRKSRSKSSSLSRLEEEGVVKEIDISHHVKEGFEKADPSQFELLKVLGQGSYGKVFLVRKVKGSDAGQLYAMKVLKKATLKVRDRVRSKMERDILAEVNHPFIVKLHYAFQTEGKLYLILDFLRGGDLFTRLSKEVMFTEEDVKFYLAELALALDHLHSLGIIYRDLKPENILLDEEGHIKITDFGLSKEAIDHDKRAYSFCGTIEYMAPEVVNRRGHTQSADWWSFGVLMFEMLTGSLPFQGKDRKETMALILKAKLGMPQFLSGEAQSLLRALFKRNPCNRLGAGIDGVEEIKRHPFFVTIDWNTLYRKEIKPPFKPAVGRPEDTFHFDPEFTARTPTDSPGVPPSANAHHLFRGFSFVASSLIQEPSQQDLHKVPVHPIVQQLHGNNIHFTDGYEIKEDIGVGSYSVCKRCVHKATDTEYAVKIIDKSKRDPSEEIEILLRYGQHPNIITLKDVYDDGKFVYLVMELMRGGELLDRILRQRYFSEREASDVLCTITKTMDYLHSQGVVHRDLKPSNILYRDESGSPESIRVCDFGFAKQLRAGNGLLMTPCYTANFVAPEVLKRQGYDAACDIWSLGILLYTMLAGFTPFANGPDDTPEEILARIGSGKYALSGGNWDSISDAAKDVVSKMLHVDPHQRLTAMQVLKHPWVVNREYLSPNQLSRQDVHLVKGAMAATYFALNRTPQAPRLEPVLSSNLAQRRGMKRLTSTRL

[3] = target: T3, Abl (M351T) (Homo sapiens, UniProt P00519, M351T); experiment: Kinome profiler screen; format: biochemical; conditions: at 20,000 nM inhibitor; kinase activity remaining
T3 construct: purchased Millipore KinaseProfiler

[4] = target: T4, CDK2/cyclinA (Homo sapiens, UniProt P24941); experiment: Kinome profiler screen; format: biochemical; conditions: at 20,000 nM inhibitor; kinase activity remaining
T4 construct: purchased Millipore KinaseProfiler

[5] = target: T5, NEK3 (Homo sapiens, UniProt P51956); experiment: Kinome profiler screen; format: biochemical; conditions: at 20,000 nM inhibitor; kinase activity remaining
T5 construct: purchased Millipore KinaseProfiler

[6] = tested on: IL-1β levels in brain cortex; experiment: LPS-induced brain IL-1β in vivo; design: species or system C57Bl/6 mice; conditions: 20 mg/Kg oral gavage 1 hr before LPS 0.5 mg/kg i.p.; brain cortex at 6 hrs
[7] = target: T6, PKD2 (Homo sapiens, UniProt Q9BZL6); experiment: Kinome profiler screen; format: biochemical; conditions: at 20,000 nM inhibitor; kinase activity remaining
T6 construct: purchased Millipore KinaseProfiler

[8] = target: T7, PKCε (Homo sapiens, UniProt Q02156); experiment: Kinome profiler screen; format: biochemical; conditions: at 20,000 nM inhibitor; kinase activity remaining
T7 construct: purchased Millipore KinaseProfiler

[9] = target: T8, PDGFRα (Homo sapiens, UniProt P16234); experiment: Kinome profiler screen; format: biochemical; conditions: at 20,000 nM inhibitor; kinase activity remaining
T8 construct: purchased Millipore KinaseProfiler

[10] = target: T9, IRAK4 (Homo sapiens, UniProt Q9NWZ3); experiment: Kinome profiler screen; format: biochemical; conditions: at 20,000 nM inhibitor; kinase activity remaining
T9 construct: purchased Millipore KinaseProfiler

[11] = target: T10, BrSK2 (Homo sapiens, UniProt Q8IWQ3); experiment: Kinome profiler screen; format: biochemical; conditions: at 20,000 nM inhibitor; kinase activity remaining
T10 construct: purchased Millipore KinaseProfiler

[12] = target: T11, GSK3β (Homo sapiens, UniProt P49841); experiment: Kinome profiler screen; format: biochemical; conditions: at 20,000 nM inhibitor; kinase activity remaining
T11 construct: purchased Millipore KinaseProfiler

[13] = target: T12, Ret (Homo sapiens, UniProt P07949); experiment: Kinome profiler screen; format: biochemical; conditions: at 20,000 nM inhibitor; kinase activity remaining
T12 construct: purchased Millipore KinaseProfiler

[14] = target: T13, CDK3/cyclinE (Homo sapiens, UniProt Q00526); experiment: Kinome profiler screen; format: biochemical; conditions: at 20,000 nM inhibitor; kinase activity remaining
T13 construct: purchased Millipore KinaseProfiler

[15] = target: T14, Met(Y1248H) (Homo sapiens, UniProt P08581, Y1230H); experiment: Kinome profiler screen; format: biochemical; conditions: at 20,000 nM inhibitor; kinase activity remaining
T14 construct: purchased Millipore KinaseProfiler

[16] = target: T15, ROCK-I (Homo sapiens, UniProt Q13464); experiment: Kinome profiler screen; format: biochemical; conditions: at 20,000 nM inhibitor; kinase activity remaining
T15 construct: purchased Millipore KinaseProfiler
T15 sequence (Q13464 whole entry): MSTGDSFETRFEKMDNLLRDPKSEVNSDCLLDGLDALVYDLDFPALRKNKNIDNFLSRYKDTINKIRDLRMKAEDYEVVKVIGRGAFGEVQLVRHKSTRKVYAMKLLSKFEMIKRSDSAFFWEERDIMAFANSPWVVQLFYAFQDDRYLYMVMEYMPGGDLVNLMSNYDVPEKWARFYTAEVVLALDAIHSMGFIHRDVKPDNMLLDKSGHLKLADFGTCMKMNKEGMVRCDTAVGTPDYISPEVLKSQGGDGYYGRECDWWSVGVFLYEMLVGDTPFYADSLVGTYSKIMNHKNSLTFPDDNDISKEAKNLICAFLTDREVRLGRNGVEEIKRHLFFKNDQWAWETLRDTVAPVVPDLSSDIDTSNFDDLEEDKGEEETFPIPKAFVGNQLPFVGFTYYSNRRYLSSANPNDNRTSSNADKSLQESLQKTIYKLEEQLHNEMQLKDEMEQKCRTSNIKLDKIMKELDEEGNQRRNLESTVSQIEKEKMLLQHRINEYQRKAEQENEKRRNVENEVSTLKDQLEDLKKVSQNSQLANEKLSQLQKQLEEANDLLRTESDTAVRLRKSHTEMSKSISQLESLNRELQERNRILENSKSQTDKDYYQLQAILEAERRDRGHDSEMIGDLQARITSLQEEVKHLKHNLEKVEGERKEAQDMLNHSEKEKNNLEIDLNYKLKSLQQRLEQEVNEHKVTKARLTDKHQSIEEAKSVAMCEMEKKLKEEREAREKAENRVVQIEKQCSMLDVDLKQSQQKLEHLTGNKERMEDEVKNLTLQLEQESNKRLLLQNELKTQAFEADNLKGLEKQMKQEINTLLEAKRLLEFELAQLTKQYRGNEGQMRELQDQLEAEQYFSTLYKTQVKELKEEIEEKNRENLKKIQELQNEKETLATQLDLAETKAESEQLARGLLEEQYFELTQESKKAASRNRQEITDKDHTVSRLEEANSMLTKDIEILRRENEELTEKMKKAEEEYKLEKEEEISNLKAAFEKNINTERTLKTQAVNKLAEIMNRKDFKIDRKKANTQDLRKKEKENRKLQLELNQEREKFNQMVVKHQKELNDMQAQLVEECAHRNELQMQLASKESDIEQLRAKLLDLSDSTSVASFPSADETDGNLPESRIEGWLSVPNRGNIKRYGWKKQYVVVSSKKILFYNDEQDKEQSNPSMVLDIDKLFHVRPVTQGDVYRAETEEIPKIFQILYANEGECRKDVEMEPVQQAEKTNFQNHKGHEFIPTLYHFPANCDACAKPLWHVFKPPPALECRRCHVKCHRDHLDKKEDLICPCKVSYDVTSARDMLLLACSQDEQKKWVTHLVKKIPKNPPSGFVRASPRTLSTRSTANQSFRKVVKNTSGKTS

[17] = target: T16, SGK3 (Homo sapiens, UniProt Q96BR1); experiment: Kinome profiler screen; format: biochemical; conditions: at 20,000 nM inhibitor; kinase activity remaining
T16 construct: purchased Millipore KinaseProfiler

[18] = tested on: CA3-CA1 long-term potentiation; experiment: LTP in Aβ42-treated hippocampal brain slices; design: species or system mice; conditions: 10 µM compound, 200 nM Aβ42
[19] = target: T17, ULK3 (Homo sapiens, UniProt Q6PHR2); experiment: Kinome profiler screen; format: biochemical; conditions: at 20,000 nM inhibitor; kinase activity remaining
T17 construct: purchased Millipore KinaseProfiler

[20] = tested on: BV-2 cells; experiment: IL-1β production in BV-2 cells stimulated with TLR ligands; format: cell-based, murine; conditions: ligands for TLR2, TLR4, TLR7/8, TLR9
[21] = target: T18, KDR (Homo sapiens, UniProt P35968); experiment: Kinome profiler screen; format: biochemical; conditions: at 20,000 nM inhibitor; kinase activity remaining
T18 construct: purchased Millipore KinaseProfiler

[22] = target: T19, Bmx (Homo sapiens, UniProt P51813); experiment: Kinome profiler screen; format: biochemical; conditions: at 20,000 nM inhibitor; kinase activity remaining
T19 construct: purchased Millipore KinaseProfiler

[23] = target: T20, PIP5K1γ (Homo sapiens, UniProt O60331); experiment: Kinome profiler screen; format: biochemical; conditions: at 20,000 nM inhibitor; kinase activity remaining
T20 construct: purchased Millipore KinaseProfiler

[24] = target: T21, EphA8 (Homo sapiens, UniProt P29322); experiment: Kinome profiler screen; format: biochemical; conditions: at 20,000 nM inhibitor; kinase activity remaining
T21 construct: purchased Millipore KinaseProfiler
T21 sequence (P29322 28-1005): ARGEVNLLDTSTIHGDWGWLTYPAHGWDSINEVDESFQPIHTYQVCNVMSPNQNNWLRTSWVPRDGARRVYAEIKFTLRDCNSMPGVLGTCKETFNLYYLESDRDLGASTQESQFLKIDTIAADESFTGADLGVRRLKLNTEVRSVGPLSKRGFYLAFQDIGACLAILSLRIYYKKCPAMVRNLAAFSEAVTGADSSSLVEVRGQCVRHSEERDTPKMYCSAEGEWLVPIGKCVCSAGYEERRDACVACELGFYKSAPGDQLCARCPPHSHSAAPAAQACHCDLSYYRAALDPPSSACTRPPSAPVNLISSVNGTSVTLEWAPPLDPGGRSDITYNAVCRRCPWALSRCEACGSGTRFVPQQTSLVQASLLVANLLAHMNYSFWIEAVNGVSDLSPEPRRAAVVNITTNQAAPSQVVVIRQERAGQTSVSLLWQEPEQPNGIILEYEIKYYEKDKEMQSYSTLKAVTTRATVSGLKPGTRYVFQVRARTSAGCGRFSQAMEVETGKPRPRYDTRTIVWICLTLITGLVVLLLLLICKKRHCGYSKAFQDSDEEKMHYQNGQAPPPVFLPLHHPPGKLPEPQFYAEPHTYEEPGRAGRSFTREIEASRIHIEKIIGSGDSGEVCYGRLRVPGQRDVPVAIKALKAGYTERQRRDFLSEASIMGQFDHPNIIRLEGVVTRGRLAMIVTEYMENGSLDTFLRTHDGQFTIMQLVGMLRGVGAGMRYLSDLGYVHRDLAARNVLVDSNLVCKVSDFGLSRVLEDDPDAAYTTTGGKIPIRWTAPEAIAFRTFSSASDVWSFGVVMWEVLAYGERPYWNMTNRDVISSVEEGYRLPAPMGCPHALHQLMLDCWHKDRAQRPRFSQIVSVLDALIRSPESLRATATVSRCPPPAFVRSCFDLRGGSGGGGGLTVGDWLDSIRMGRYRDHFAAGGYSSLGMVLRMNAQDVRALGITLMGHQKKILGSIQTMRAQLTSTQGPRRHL

[25] = target: T22, SGK (Homo sapiens, UniProt O00141); experiment: Kinome profiler screen; format: biochemical; conditions: at 20,000 nM inhibitor; kinase activity remaining
T22 construct: purchased Millipore KinaseProfiler
T22 sequence (O00141 whole entry): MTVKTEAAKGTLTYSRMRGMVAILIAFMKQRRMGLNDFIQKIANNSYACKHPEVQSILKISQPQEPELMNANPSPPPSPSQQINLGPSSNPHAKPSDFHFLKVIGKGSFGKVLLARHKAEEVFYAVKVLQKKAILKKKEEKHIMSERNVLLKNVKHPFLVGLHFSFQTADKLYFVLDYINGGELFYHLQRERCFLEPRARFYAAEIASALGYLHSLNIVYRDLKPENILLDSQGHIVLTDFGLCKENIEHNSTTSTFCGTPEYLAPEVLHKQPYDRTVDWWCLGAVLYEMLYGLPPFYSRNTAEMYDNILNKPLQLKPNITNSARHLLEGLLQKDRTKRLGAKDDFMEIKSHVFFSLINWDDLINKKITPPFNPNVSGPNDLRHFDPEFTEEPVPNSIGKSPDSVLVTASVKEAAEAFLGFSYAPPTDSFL

[26] = target: T23, MSK2 (Homo sapiens, UniProt O75676); experiment: Kinome profiler screen; format: biochemical; conditions: at 20,000 nM inhibitor; kinase activity remaining
T23 construct: purchased Millipore KinaseProfiler

[27] = tested on: visual, motor and motivation deficits; experiment: Visible platform test; format: in vivo, C57BL/6J mice; conditions: control test
[28] = target: T24, HIPK1 (Homo sapiens, UniProt Q86Z02); experiment: Kinome profiler screen; format: biochemical; conditions: at 20,000 nM inhibitor; kinase activity remaining
T24 construct: purchased Millipore KinaseProfiler

[29] = target: T25, cKit(V560G) (Homo sapiens, UniProt P10721, V560G); experiment: Kinome profiler screen; format: biochemical; conditions: at 20,000 nM inhibitor; kinase activity remaining
T25 construct: purchased Millipore KinaseProfiler

[30] = target: T26, LKB1 (Homo sapiens, UniProt Q15831); experiment: Kinome profiler screen; format: biochemical; conditions: at 20,000 nM inhibitor; kinase activity remaining
T26 construct: purchased Millipore KinaseProfiler

[31] = target: T27, ARK5 (Homo sapiens, UniProt O60285); experiment: Kinome profiler screen; format: biochemical; conditions: at 20,000 nM inhibitor; kinase activity remaining
T27 construct: purchased Millipore KinaseProfiler

[32] = target: T28, IKKβ (Homo sapiens, UniProt O14920); experiment: Kinome profiler screen; format: biochemical; conditions: at 20,000 nM inhibitor; kinase activity remaining
T28 construct: purchased Millipore KinaseProfiler

[33] = target: T29, mTOR (Homo sapiens, UniProt P42345); experiment: Kinome profiler screen; format: biochemical; conditions: at 20,000 nM inhibitor; kinase activity remaining
T29 construct: purchased Millipore KinaseProfiler

[34] = target: T30, Tie2(Y897S) (Homo sapiens, UniProt Q02763, Y897S); experiment: Kinome profiler screen; format: biochemical; conditions: at 20,000 nM inhibitor; kinase activity remaining
T30 construct: purchased Millipore KinaseProfiler

[35] = target: T31, Met(D1246H) (Homo sapiens, UniProt P08581, D1228H); experiment: Kinome profiler screen; format: biochemical; conditions: at 20,000 nM inhibitor; kinase activity remaining
T31 construct: purchased Millipore KinaseProfiler

[36] = target: T32, Tec(h) activated (Homo sapiens, UniProt P42680); experiment: Kinome profiler screen; format: biochemical; conditions: at 20,000 nM inhibitor; kinase activity remaining
T32 construct: purchased Millipore KinaseProfiler
T32 sequence (P42680 whole entry): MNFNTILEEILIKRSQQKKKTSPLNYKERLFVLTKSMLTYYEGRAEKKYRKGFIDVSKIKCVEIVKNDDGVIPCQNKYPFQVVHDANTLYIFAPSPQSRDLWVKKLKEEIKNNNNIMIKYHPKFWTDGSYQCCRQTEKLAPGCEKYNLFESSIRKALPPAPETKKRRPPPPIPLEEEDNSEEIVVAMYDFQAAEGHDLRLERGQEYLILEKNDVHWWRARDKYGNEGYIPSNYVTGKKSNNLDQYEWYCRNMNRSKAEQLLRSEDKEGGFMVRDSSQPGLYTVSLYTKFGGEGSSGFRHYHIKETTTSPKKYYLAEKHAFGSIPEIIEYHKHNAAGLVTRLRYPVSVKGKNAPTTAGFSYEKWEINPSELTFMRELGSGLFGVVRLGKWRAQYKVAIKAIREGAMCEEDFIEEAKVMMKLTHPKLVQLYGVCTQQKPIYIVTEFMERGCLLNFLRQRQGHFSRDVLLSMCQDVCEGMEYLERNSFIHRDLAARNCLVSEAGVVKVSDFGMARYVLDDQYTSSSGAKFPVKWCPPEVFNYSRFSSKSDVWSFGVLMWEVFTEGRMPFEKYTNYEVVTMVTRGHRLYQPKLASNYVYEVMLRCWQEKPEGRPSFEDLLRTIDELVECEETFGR

[37] = target: T33, CSK (Homo sapiens, UniProt P41240); experiment: Kinome profiler screen; format: biochemical; conditions: at 20,000 nM inhibitor; kinase activity remaining
T33 construct: purchased Millipore KinaseProfiler

[38] = target: T34, Src(T341M) (Homo sapiens, UniProt P12931, T341M); experiment: Kinome profiler screen; format: biochemical; conditions: at 20,000 nM inhibitor; kinase activity remaining
T34 construct: purchased Millipore KinaseProfiler

[39] = target: T35, Aurora-A (Homo sapiens, UniProt O14965); experiment: Kinome profiler screen; format: biochemical; conditions: at 20,000 nM inhibitor; kinase activity remaining
T35 construct: purchased Millipore KinaseProfiler

[40] = target: T36, FGFR2(N549H) (Homo sapiens, UniProt P21802, N549H); experiment: Kinome profiler screen; format: biochemical; conditions: at 20,000 nM inhibitor; kinase activity remaining
T36 construct: purchased Millipore KinaseProfiler

[41] = target: T37, CDK5/p25 (Homo sapiens, UniProt Q00535); experiment: Kinome profiler screen; format: biochemical; conditions: at 20,000 nM inhibitor; kinase activity remaining
T37 construct: purchased Millipore KinaseProfiler

[42] = target: T38, TGFBR1 (Homo sapiens, UniProt P36897); experiment: Kinome profiler screen; format: biochemical; conditions: at 20,000 nM inhibitor; kinase activity remaining
T38 construct: purchased Millipore KinaseProfiler

[43] = target: T39, Arg (Homo sapiens, UniProt P42684); experiment: Kinome profiler screen; format: biochemical; conditions: at 20,000 nM inhibitor; kinase activity remaining
T39 construct: purchased Millipore KinaseProfiler

T1 sequence (Q14680 whole entry): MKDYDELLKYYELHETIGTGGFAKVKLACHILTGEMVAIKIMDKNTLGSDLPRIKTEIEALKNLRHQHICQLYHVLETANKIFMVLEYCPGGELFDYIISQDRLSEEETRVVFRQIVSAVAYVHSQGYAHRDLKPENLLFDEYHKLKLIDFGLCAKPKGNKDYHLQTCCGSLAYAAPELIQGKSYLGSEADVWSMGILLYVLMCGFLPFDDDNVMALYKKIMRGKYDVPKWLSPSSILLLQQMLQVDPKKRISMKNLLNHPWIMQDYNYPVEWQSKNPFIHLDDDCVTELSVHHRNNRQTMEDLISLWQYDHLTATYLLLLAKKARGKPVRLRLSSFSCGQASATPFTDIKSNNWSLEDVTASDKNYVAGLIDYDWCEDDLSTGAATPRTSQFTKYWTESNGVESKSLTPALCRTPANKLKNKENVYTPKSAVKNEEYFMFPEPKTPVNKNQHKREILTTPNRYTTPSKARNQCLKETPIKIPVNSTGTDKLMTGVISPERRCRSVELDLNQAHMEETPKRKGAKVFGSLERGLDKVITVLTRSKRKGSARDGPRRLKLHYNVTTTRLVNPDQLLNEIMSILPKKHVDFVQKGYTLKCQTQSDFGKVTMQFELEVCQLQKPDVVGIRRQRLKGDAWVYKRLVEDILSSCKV

## CN(C)c1cc(-c2ccncc2)c(-c2ccc3ccccc3c2)nn1 [MW108, N, N-dimethyl-6-(naphthalen-2-yl)-5-(pyridin-4-yl)pyridazin-3-amine]
[1]
  activity at 20 µM: 90%
[2]
  activity at 20 µM: 83%
[3]
  activity at 20 µM: 106%
[4]
  activity at 20 µM: 79%
[5]
  activity at 20 µM: 98%
[6]
  LPS-induced IL-1β levels in vivo: suppressed LPS-induced IL-1β levels in vivo
[7]
  activity at 20 µM: 78%
[8]
  activity at 20 µM: 90%
[9]
  activity at 20 µM: 106%
[10]
  activity at 20 µM: 91%
[11]
  activity at 20 µM: 88%
[12]
  activity at 20 µM: 97%
[13]
  activity at 20 µM: 94%
[14]
  activity at 20 µM: 91%
[15]
  activity at 20 µM: 88%
[16]
  activity at 20 µM: 89%
[17]
  activity at 20 µM: 104%
[18]
  LTP deficit in Aβ42-treated slices: ameliorated the LTP deficit
[19]
  activity at 20 µM: 95%
[20]
  IL-1β production with diverse TLR ligands: suppressed IL-1β production
[21]
  activity at 20 µM: 87%
[22]
  activity at 20 µM: 87%
[23]
  activity at 20 µM: 104%
[24]
  activity at 20 µM: 95%
[25]
  activity at 20 µM: 88%
[26]
  activity at 20 µM: 91%
[27]
  visible platform test, speed and time to the platform: No difference was detected between groups
[28]
  activity at 20 µM: 98%
[29]
  activity at 20 µM: 95%
[30]
  activity at 20 µM: 102%
[31]
  activity at 20 µM: 98%
[32]
  activity at 20 µM: 98%
[33]
  activity at 20 µM: 92%
[34]
  activity at 20 µM: 95%
[35]
  activity at 20 µM: 94%
[36]
  activity at 20 µM: 89%
[37]
  activity at 20 µM: 93%
[38]
  activity at 20 µM: 92%
[39]
  activity at 20 µM: 118%
[40]
  activity at 20 µM: 76%
[41]
  activity at 20 µM: 106%
[42]
  activity at 20 µM: 76%
[43]
  activity at 20 µM: 95%

## CN(C)c1cc(-c2ccncc2)c(-c2cccc3ccccc23)nn1 [MW181, N,N-dimethyl-6-(naphthalen-1-yl)-5-(pyridin-4-yl)pyridazin-3-amine]
[1]
  activity at 20 µM: 91%
[2]
  activity at 20 µM: 114%
[3]
  activity at 20 µM: 101%
[4]
  activity at 20 µM: 92%
[5]
  activity at 20 µM: 116%
[6]
  LPS-induced IL-1β levels in vivo: suppressed LPS-induced IL-1β levels in vivo
[7]
  activity at 20 µM: 78%
[8]
  activity at 20 µM: 98%
[9]
  activity at 20 µM: 103%
[10]
  activity at 20 µM: 100%
[11]
  activity at 20 µM: 105%
[12]
  activity at 20 µM: 92%
[13]
  activity at 20 µM: 118%
[14]
  activity at 20 µM: 98%
[15]
  activity at 20 µM: 103%
[16]
  activity at 20 µM: 97%
[17]
  activity at 20 µM: 100%
[18]
  LTP deficit in Aβ42-treated slices: ameliorated the LTP deficit
[19]
  activity at 20 µM: 106%
[20]
  IL-1β production with diverse TLR ligands: suppressed IL-1β production
[21]
  activity at 20 µM: 97%
[22]
  activity at 20 µM: 108%
[23]
  activity at 20 µM: 100%
[24]
  activity at 20 µM: 91%
[25]
  activity at 20 µM: 88%
[26]
  activity at 20 µM: 99%
[27]
  visible platform test, speed and time to the platform: No difference was detected between groups
[28]
  activity at 20 µM: 107%
[29]
  activity at 20 µM: 71%
[30]
  activity at 20 µM: 100%
[31]
  activity at 20 µM: 103%
[32]
  activity at 20 µM: 88%
[33]
  activity at 20 µM: 109%
[34]
  activity at 20 µM: 95%
[35]
  activity at 20 µM: 102%
[36]
  activity at 20 µM: 98%
[37]
  activity at 20 µM: 111%
[38]
  activity at 20 µM: 102%
[39]
  activity at 20 µM: 113%
[40]
  activity at 20 µM: 96%
[41]
  activity at 20 µM: 99%
[42]
  activity at 20 µM: 113%
[43]
  activity at 20 µM: 84%
